# Residue numbers refer to the chain shown, from its start.
# T1: CaSR 7-transmembrane domain allosteric binding site (Homo sapiens, UniProt P41180)
# T1 sequence (P41180 20-1078): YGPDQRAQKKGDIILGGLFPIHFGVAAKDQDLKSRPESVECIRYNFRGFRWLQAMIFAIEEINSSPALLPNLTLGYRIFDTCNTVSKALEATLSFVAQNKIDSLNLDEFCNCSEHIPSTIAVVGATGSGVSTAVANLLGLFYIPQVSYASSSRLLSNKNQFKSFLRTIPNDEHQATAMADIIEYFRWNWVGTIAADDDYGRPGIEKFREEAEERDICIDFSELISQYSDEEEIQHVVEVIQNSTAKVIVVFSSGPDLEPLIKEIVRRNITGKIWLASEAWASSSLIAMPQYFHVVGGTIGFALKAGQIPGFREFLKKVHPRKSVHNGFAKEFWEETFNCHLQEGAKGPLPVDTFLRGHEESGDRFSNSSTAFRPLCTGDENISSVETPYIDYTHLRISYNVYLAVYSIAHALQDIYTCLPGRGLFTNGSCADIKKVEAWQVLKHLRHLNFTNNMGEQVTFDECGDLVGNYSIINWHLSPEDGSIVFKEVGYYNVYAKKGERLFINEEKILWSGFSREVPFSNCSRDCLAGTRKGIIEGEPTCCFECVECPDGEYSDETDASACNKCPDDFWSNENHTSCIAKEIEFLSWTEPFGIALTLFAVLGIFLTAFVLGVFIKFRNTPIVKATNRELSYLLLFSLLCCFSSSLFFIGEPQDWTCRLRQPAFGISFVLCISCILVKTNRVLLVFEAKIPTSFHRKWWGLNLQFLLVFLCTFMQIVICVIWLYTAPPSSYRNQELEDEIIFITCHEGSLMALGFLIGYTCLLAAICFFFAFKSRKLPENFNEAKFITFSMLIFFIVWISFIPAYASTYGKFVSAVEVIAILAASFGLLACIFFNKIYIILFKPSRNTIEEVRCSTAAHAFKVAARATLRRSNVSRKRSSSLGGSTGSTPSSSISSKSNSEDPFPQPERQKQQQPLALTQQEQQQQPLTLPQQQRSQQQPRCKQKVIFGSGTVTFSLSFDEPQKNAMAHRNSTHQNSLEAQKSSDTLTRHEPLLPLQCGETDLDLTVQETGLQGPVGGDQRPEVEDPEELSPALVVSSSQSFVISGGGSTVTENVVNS
# T2: loss-of-function mutant CaSR Q459R (Homo sapiens, UniProt P41180, Q459R)
# T2 construct: expressed in transfected cells
# T2 sequence (P41180 20-1078 Q459R): T1 sequence (P41180 20-1078) with Q440R
# B1: Nb4: llama-derived CaSR-specific nanobody acting as PAM, SEQ ID NO:5 (protein)
# VHH: QVQLVESGGGLVQAGGSLRLSCAASGRTFSTYRMGWFRQGLGKEREFVAAITANGVRTFYTDSVKGRFTISRDNAKNTLYLQMNSLQPDDTAVYLCAARRKGIFTVQQAQDITDWDYWGQGTQVTVSS
# modifications: CaSR Nb4
# Columns and labels:
# [1] = clinical development; cited from earlier work
# [2] = biological target: T1, CaSR 7-transmembrane domain allosteric binding site; assay: [3H]evocalcet radioligand displacement
# Description: For the seven different nanobodies with potencies in the 10 to 600 nM range, further characterization of their recognition site on the CaSR antigen was performed, since the identification of the nanobody binding-sites at the CaSR is key to understand their interaction and mode-of-action at a molecular and structural level, and will further aid in the development of second-generation nanobodies with enhanced pharmacological parameters. Nanobodies belonging to each family of the five different nanobody families are expected to interact with distinct regions of the CaSR.
# [3] = biological target: T2, loss-of-function mutant CaSR Q459R; assay: IP1 accumulation assay, Ca2+ concentration-response curve of CaSR Q459R; format: cell-based; settings: preliminary experiment; for Concentration at which the PAM effect is initiated: Ca2+ concentration-response curve; for Effect on potency for Ca2+ in CaSR Q459R: increasing PAM concentrations
# Description: In comparison with loss-of-function mutant S170A, Q459R is a naturally occurring loss-of-function mutant that has previously been associated with familial hypocalciuric hypercalcemia (FHH). The effect of increasing concentrations of CaSR Nb4 or the clinically used PAM cinacalcet on the Ca^2+ concentration-response curve were measured with the IP1 accumulation assay. […] The PAM effect of CaSR Nb4 (0.04 μM) is initiated at a much lower concentration than for cinacalcet (5 μM).
# Inositol monophosphate (IP1) accumulation was measured using the commercially available HTRF® IP1 accumulation kit (Cisbio Bioassays, Codolet, France) and an EnVision multimode plate reader (PerkinElmer, Waltham, Mass., USA). Unless stated otherwise, the cells were washed once with 100 μL/well assay buffer and stimulated for 30 minutes at 37° C. with 50 μL/well ligand(s) diluted in assay buffer supplemented with 20 mM LiCl. Following stimulation, the cells were washed once with 100 μL/well and lysed for 30 minutes at room temperature with 30 μL/well lysis buffer provided with the kit. The lysed cells were diluted 1:2 with assay buffer after which 10 μL/well was pipetted to a white 384-well OptiPlate (PerkinElmer, Waltham, Mass., USA). Next, 10 μL of a detection solution consisting of 2.5% IP1-d2 conjugate and 2.5% anti-IP1 antibody diluted in assay buffer was added to each well. Fluorophore emissions were measured after the plate was stored in the dark for 1 h. The 615/665 nm emission ratios measured upon excitation at 340 nm were converted to IP1 concentrations with an IP1 standard curve according to the manufacturer's instructions.
Molecule,Oral bioavailability [1] [%],Displacement of [3H]evocalcet binding [2],Concentration at which the PAM effect is initiated [3] [µM],Effect on potency for Ca2+ in CaSR Q459R [3]
"COc1cccc([C@@H](C)NCCCc2ccccc2Cl)c1 [NPS R-568, reference compound]",< 5,,,
"C[C@@H](NCCCc1cccc(C(F)(F)F)c1)c1cccc2ccccc12 [cinacalcet, reference compound]",,did displace,5,able to increase the potency for Ca^2+
B1,,do not displace,0.04,able to increase the potency for Ca^2+
